Patent US20080268073A1, “CERAMIDASE INHIBITOR” (TAKARA BIO INC., priority 2003, published 2008)

Test system: neutral/alkaline RatBrain Ceramidase
Assay: Inhibitory activity on neutral/alkaline RatBrain Ceramidase (Reference Example 1, NBD-C12-Ceramide, HPLC)
Assay type: biochemical, rat
Details: concentration of 5 μM; NBD-C12-Ceramide 0.02 mM
Description: As neutral/alkaline ceramidase, two kinds of ceramidase derived from Pseudomonas aeruginosa strain AN17 and ceramidase derived from a rat brain were used.
On the other hand, a crude enzyme solution of rat brain-derived ceramidase was prepared in the following manner. First, two pieces (3.5 g) of rat brain tissues were homogenized in 30 mL of 0.25 M sucrose solution with a Potter-Elvehjem homogenizer. The resulting homogenate was centrifuged at 700×g for 10 minutes, then the supernatant was centrifuged at 25,000×g for 10 minutes, and the resulting supernatant was further centrifuged at 100,000×g for 60 minutes to give precipitates which were then suspended in 3 mL of 25 mM Tris-HCl buffer (pH 8.0). Nine milliliters of 25 mM Tris-HCl buffer (pH 8.0) comprising 0.5% Triton X-100 was added to the resulting suspension which was then subjected to extraction by leaving the suspension on ice for 2 hours. […]
The inhibitory activity on the neutral/alkaline RatBrain Ceramidase was determined in the following manner. […] The reaction was terminated by adding 75 microliters of methanol, and 50 microliters of aliquot of the reaction solution was analyzed by HPLC.
HPLC analysis was carried out in the following manner. […] Detection was carried out with a fluorescence detector at an excitation light of 465 nm and a fluorescent light of 535 nm. […]

inhibition of the activity of neutral/alkaline ceramidase derived from a rat brain: 50%
SMILES: CCCC/C=C/CCCC(O)C(CCCCCCCCCCCCCCCC/C=C/CC(=O)O)C(CO)C(C)O (single isomer, unassigned) [purified substance]
